Source: US12433875B2, “(R)-4-(1-(6-(4-(trifluoromethyl)benzyl)-6-azaspiro[2.5]octane-5-carboxamido)-cyclopropyl) benzoic acid or its salt also in polymorphic form a for use in the prevention of heterotopic ossification” (ROTTAPHARM BIOTECH S.R.L., priority 2019, dated 2025)

Legend:
[1] = system: Male Lewis rats (CIA model, heterotopic bone formation); test: Collagen Induce Arthritis (CIA) in rats, histological scores; assay type: in vivo, rat
From the text: Collagen Induce Arthritis (CIA) in rats is among the most common models used to mimic human arthritis and especially Rheumatoid Arthritis (RA). In general the joint response seen in this model is quite similar to that observed in human pathology, in terms of inflammation, bone erosion and cartilage damage. Nevertheless, this model differs from Rheumatoid Arthritis, since it is endowed with a consistent periosteal woven bone formation (immature bone) that is not a usual feature of human RA (maybe, less than 10% of patients have this type of bone reaction). On the contrary, this disordered apposition of new bone is the distinctive feature of heterotopic ossification. Therefore, this model was used to study the effect of the compound of the invention in Pathological heretopic osteogenesis.
Male Lewis rats were immunized by intradermal injection at the base of the tail with an emulsion containing 150 μg of bovine collagen type II (bCII) in complete Freund's adjuvant (CFA) or received an injection with incomplete Freund's adjuvant (sham group). Three weeks after the first immunisation, animals were boosted with the same procedure. Three days after booster injection, arthritis had developed in all animals but the sham group. The administration of the compound (1) Form A started at this time point and lasted for 14 days (once a day, unless otherwise indicated).
The paws were fixed in 10% neutral buffered formalin (Bio-Optica, Milan, Italy) and subsequently decalcified in EDTA for 4 weeks. Samples were dehydrated in an ethanol series and embedded in paraffin. At least three non-consecutive sections for each paw were blindly scored at the level of the tarsus, metatarsus and calcaneus for the following histological features of woven bone. Two independent pathologists performed histopathology on blinded slides. The data of right and left hind limbs were summed for each rat.
In FIG. 3 the dose-response curve for the compound of the invention is reported. the compound was administered once a day for 14 days on the site where the pathological bone formation was expected as induced in the CIA model in rats. The dose were 1 mg/Kg, 3 mg/kg and 10 mg/kg. The data were expressed as the median (boxed area), 95% interquartile range (whiskers), and individual data (symbols) of the histological scores for heterotopic bone formation (osteogenesis) given by two pathologists unaware of the treatment groups on a following scale: 0=absent; 1=mild/focal; 2=moderate/multifocal; 3=severe/multifocal to diffuse. Since arthritis was bilateral, the scores for each rat was the sum of the two leg scores. […] The compound reached the maximal activity at 10 mg/kg.
The data were expressed as the median histological scores for heterotopic bone formation (osteogenesis) as described for FIG. 3. […] As for osteogenesis, the data reported in this graph were the median (boxed area), 95% interquartile range (whiskers), and individual data (symbols) of the histological scores for synovial hyperplasia (oedema) given by two pathologists unaware of the treatment groups on a following scale: 0=normal: 1-2 layers of synovial lining cells, 1=mild: focal to multifocal 3-4 layers of synovial lining cells and/or mild proliferation of subsynovial tissue, 2=moderate: focal to mutlitfocal >4-6 layers of synovial lining cells and/or moderate proliferation of subsynovial tissue, 3=severe: multifocal to diffuse >6-8 layers of synovial lining cells and/or severe proliferation of subsynovial tissue. Since arthritis was bilateral, the scores for each rat is the sum of the two leg scores. This underline a preferential and surprising effect of (R)-4-(1-(6-(4-(trifluoromethyl)benzyl)-6-azaspiro[2.5]octane-5-carboxamido)cyclopropyl)benzoic acid on the heterotopic bone formation, […].
The free acid form has been assayed in the rat CIA model as already described for its sodium salt (Form A). […]

[2] = system: Male DBA/1 mice (CIA model); test: CIA in mice, histology of heterotopic bone formation; assay type: in vivo; conditions: 60 mg/kg once daily for 10 days, FIG. 9
Protocol: CIA in mice is another very popular translational model to mimic human arthritis. […] Male DBA/1 mice were immunized by intradermal injection at the base of the tail with an emulsion of 200 μg of bCII in CFA containing 3 mg/ml Mycobacterium tuberculosis. Non-immunized mice served as the negative control of disease. Animals were monitored by visual inspection for appearance of peripheral edema. […] Upon onset, animals were recruited and randomized. Recruitment was given a cut-off at day 40. Upon recruitment, arthritis clinical score was assigned, and edema was measured via caliper. Mice were randomized into the following groups: vehicle, 30 mg/kg the form A of the sodium salt of (R)-4-(1-(6-(4-(trifluoromethyl)benzyl)-6-azaspiro[2.5]octane-5-carboxamido)cyclopropyl)benzoic acid, 60 mg/kg the form A of the sodium salt of (R)-4-(1-(6-(4-(trifluoromethyl)benzyl)-6-azaspiro[2.5]octane-5-carboxamido)cyclopropyl)benzoic acid and 60 mg/kg naproxen. Animals received the test drugs once daily for 10 days. Histology was performed as described for rats.

Structure (SMILES): O=C(O)c1ccc(C2(NC(=O)[C@H]3CC4(CCN3Cc3ccc(C(F)(F)F)cc3)CC4)CC2)cc1 [free acid, (R)-4-(1-(6-(4-(trifluoromethyl)benzyl)-6-azaspiro[2.5]octane-5-carboxamido)cyclopropyl)benzoic acid]
- potency in controlling osteogenesis compared with tofacitinib ([1]; free acid orally 15 mg/kg once a day vs tofacitinib 5 or 25 mg/kg b.i.d.): superior

Structure (SMILES): COc1ccc2cc([C@H](C)C(=O)O)ccc2c1 [naproxen, reference compound]
- new heterotopic bone formation (histology) [2]: not able to significantly affect new heterotopic bone formation

Structure (SMILES): CS(=O)(=O)c1ccc(C2=C(c3ccccc3)C(=O)OC2)cc1 [rofecoxib, reference compound]
- control of the inflammatory response (edema; histological scores for synovial hyperplasia) ([1]; 15 mg/kg each, FIG. 6b): equally effective

Structure (SMILES): C[C@@H]1CCN(C(=O)CC#N)C[C@@H]1N(C)c1ncnc2[nH]ccc12 [tofacitinib, reference compound]
- effect in controlling osteogenesis relative to the free acid at 15 mg/kg QD ([1]; tofacitinib 25 mg/kg b.i.d. (daily dose more than three times higher)): reached the same effect in controlling osteogenesis
